Source: patent US7588931B2, “High arachidonic acid producing strains of Yarrowia lipolytica” (E. I. du Pont de Nemours and Company, priority 2004, dated 2009)
“Also recorded” adds a separate entry of the source.

Legend:
Assay type in all cases: cell-based, Yarrowia lipolytica
[1] = tested on: β-glucuronidase (GUS) reporter; experiment: Comparative analysis of promoters by fluorometric assay of GUS expression
Procedure: GUS activity was also assayed by fluorometric determination of the production of 4-methylumbelliferone (4-MU) from the corresponding substrate β-glucuronide (Jefferson, R. A. Plant Mol. Biol. Reporter 5:387-405 (1987)).
Yarrowia lipolytica ATCC #76982 strains containing plasmids pY5-30, PYZGDG, PYZGMG, pDMW212 and pDMW214 were grown from single colonies in 3 mL MM (as described above) at 30° C. to an OD600˜1.0. Then, the 3 mL cultures were each added to a 500 mL flask containing 50 mL MM and grown in a shaking incubator at 30° C. for about 24 hrs. The cells were collected by centrifugation, resuspended in Promega Cell Lysis Buffer and lysed using the BIO 101 Biopulverizer system (Vista, Calif.). After centrifugation, the supernatants were removed and kept on ice.
Similarly, Y. lipolytica strain Y2034 containing plasmids pY5-30, pYAT-GUS, pYGPAT-GUS and pDMW214 constructs, respectively, were grown from single colonies in 10 mL SD medium at 30° C. for 48 hrs to an OD600˜5.0. Two mL of each culture was collected for GUS activity assays, as described below, while 5 mL of each culture was switched into HGM.
Specifically, cells from the 5 mL aliquot were collected by centrifugation, washed once with 5 mL of HGM and resuspended in HGM. The cultures in HGM were then grown in a shaking incubator at 30° C. for 24 hrs. Two mL of each HGM culture were collected for the GUS activity assay, while the remaining culture was allowed to grow for an additional 96 hrs before collecting an additional 2 mL of each culture for the assay.
Each 2 mL culture sample in SD medium was resuspended in 1 mL of 0.5× cell culture lysis reagent (Promega). Resuspended cells were mixed with 0.6 mL of glass beads (0.5 mm diameter) in a 2.0 mL screw cap tube with a rubber O-ring. The cells were then homogenized in a Biospec mini beadbeater (Bartlesville, Okla.) at the highest setting for 90 sec. The homogenization mixtures were centrifuged for 2 min at 14,000 rpm in an Eppendof centrifuge to remove cell debris and beads. The supernatant was used for GUS assay and protein determination.
For each fluorometric assay, 100 μl of extract was added to […] of GUS assay buffer (2 mM 4-methylumbelliferyl-β-D-glucuronide (“MUG”) in extraction buffer) or 200 μl of extract was added to 800 μl of GUS assay buffer. The mixtures were placed at 37° C. Aliquots of 100 μl were taken at 0, 30 and 60 min time points and added to 900 μl of stop buffer (1 M Na2CO3). Each time point was read using a CytoFluor Series 4000 Fluorescence Multi-Well Plate Reader (PerSeptive Biosystems, Framingham, Mass.) set to an excitation wavelength of 360 nm and an emission wavelength of 455 nm. Total protein concentration of each sample was determined using 10 μl of extract and 200 μl of BioRad Bradford reagent or 20 μl of extract and 980 μl of BioRad Bradford reagent (Bradford, M. M. Anal. Biochem. 72:248-254 (1976)). GUS activity was expressed as nmoles of 4-MU per minute per mg of protein.

[2] = tested on: β-glucuronidase (GUS) reporter; experiment: Relative promoter activity rank from comparative GUS reporter studies (histochemical, fluorometric and/or Real Time PCR); conditions: relative to other promoters
Procedure: The activity of GPM is about the same as TEF, while the activity of GPD, FBA, FBAIN, FBAINm, GPDIN, GPAT, YAT1 and EXP1 are all greater than TEF (activity is quantified in a relative manner in the column titled “Activity Rank”, wherein a ‘1’ corresponds to the promoter with lowest activity, while a ‘7’ corresponds to the promoter with highest activity). […] GUS activity in each expressed construct was measured by histochemical and/or fluorometric assays (Jefferson, R. A. Plant Mol. Biol. Reporter 5:387-405 (1987)) and/or by use of Real Time PCR.

[3] = tested on: β-glucuronidase (GUS) reporter; experiment: Comparative analysis of promoters by histochemical analysis of GUS expression
Procedure: Comparative studies investigating the promoter activities of the TEF, GPD, GPDIN, GPM, GPAT, FBA, FBAIN and YAT1 promoters were performed, by synthesizing constructs comprising each promoter and the E. coli gene encoding β-glucuronidase (GUS) as a reporter gene (Jefferson, R. A. Nature. 14(342):837-838 (1989)). Then, GUS activity was measured by histochemical and fluorometric assays (Jefferson, R. A. Plant Mol. Biol. Reporter 5:387-405 (1987)) and/or by using Real Time PCR for mRNA quantitation.
Yarrowia lipolytica ATCC #76982 strains containing plasmids pY5-30, pYZGDG, pYZGMG, pDMW212 and pDMW214 were grown from single colonies in 3 mL MM at 30° C. to an OD600˜1.0. Then, 100 μl of cells were collected by centrifugation, resuspended in 100 μl of histochemical staining buffer, and incubated at 30° C. Staining buffer was prepared by dissolving 5 mg of 5-bromo-4-chloro-3-indolyl glucuronide (X-Gluc) in 50 μl dimethyl formamide, followed by the addition of 5 mL 50 mM NaPO4, pH 7.0.
In a separate experiment, Y. lipolytica Y2034 strains containing plasmids pY5-30, pYGPAT-GUS, pYAT-GUS and pDMW214 were grown from single colonies in 5 mL SD media at 30° C. for 24 hrs to an OD600˜8.0. Then, 1 mL of cells were collected by centrifugation. The remaining cultures were centrifuged and washed 2× with HGM, resuspended in 5 mL each of HGM and allowed to grow at 30° C. further. […]

[4] = tested on: wild type Y. lipolytica strains ATCC #20362 and ATCC #90812; experiment: Sulfonylurea sensitivity screening of wild type strains; conditions: wild type strains ATCC #20362 and ATCC #90812
Excerpt: When the amino acid sequences of wild type AHAS Y. lipolytica (GenBank Accession No. XP—501277) and S. cerevisiae (GenBank Accession No. P07342) enzymes were aligned, the Trp amino acid residue at position 586 of the S. cerevisiae enzyme was equivalent to the Trp residue at position 497 of the Y. lipolytica enzyme. It was therefore hypothesized that W497L mutation in the Y. lipolytica enzyme would likely confer sulfonylurea herbicide resistance, if the wild type cells were themselves sensitive to sulfonylurea. Using methodology well known to those of skill in the art, it was determined that sulfonylurea (chlorimuron ethyl) at a concentration of 100 μg/mL in minimal medium was sufficient to inhibit growth of wild type Y. lipolytica strains ATCC #20362 and ATCC #90812.

Compound	promoter activity relative to activity in SD medium ([1]; after 120 hrs in HGM)	GUS activity ([1]; strain Y2034, 24 hr, HGM)	GUS activity ([1]; strain Y2034, 48 hr, SD)	GUS activity ([1]; strain Y2034, 120 hr HGM)	increase of promoter activity ([1]; switched from SD medium into HGM and grown for 24 hrs)	Activity “Rank” [2]	promoter activity by histochemical staining ([3]; strain Y2034, 24 hr in SD medium, FIG. 5C)	promoter activity by histochemical staining ([3]; strain Y2034, grown in HGM for 24 hrs)	concentration in minimal medium sufficient to inhibit growth [4]
YAT1: Y. lipolytica ammonium transporter promoter, SEQ ID NO:165	25 ×	19.154 nmoles of 4-MU per minute per mg of protein	0.536 nmoles of 4-MU per minute per mg of protein	13.400 nmoles of 4-MU per minute per mg of protein	~37 fold	6	active; also recorded: stronger than the TEF promoter but significantly weaker than the FBAIN promoter and GPAT promoter	stronger than the GPAT promoter and comparable with the FBAIN promoter	–
CCOC(=O)c1ccccc1S(=O)(=O)NC(=O)Nc1nc(Cl)cc(OC)n1 [chlorimuron ethyl]	–	–	–	–	–	–	–	–	100 µg/mL
